Measured values reported in patent US20250288600A1, “USES OF FARNESOID X RECEPTOR AGONISTS” (priority 2022, published 2025).
Entries after “also recorded” stand apart in the source; their conditions may differ.

Key:
[1] = higher than OCA; cited from earlier work
[2] = promptly secreted in the bile mostly as such; cited from earlier work
[3] = test system: mouse model of alcoholic steatohepatitis; assay: Mouse model of alcoholic steatohepatitis (ALD), Lieber-DeCarli ethanol diet, oral dosing Day 1-14; assay type: in vivo; conditions: for fibrosis as analyzed by Pico Sirius Red: 30 mpk, no fibrosis at baseline or in the vehicle group; for serum bile acids: versus vehicle treated ALD mice
Description: The objective of this study was to assess efficacy of the test articles obeticholic acid (OCA), Compound 1 and Compound 2 on liver and intestinal pathology in a mouse model of alcoholic steatohepatitis.
• Species: Mouse • Strain: C57BL/6J (JAX #000664) • Condition: Purpose-bred, naïve • Source: Jackson Laboratories • Number of Females: 138 (119 on study+19 spares) • Target Age at the 10 weeks
Diet: 5CR4 chow until Day −26; Lieber-DeCarli liquid diet Days […] to Day 15. Upon arrival at the Testing Facility, all animals were placed on PMI Nutrition International Certified Rodent Chow No. 5CR4 ad libitum. During the chow diet phase (until Day −26), the diet in meal form may be provided to individual animals as warranted by clinical signs (e.g., broken/damaged incisors or other health changes).
On Day −26, all animals received 50 mL ethanol diet (1% v/v ethanol). The percentage of alcohol in the liquid diet was increased by 1% v/v every day until reaching 5% (v/v) on day −22 and is maintained at 5% v/v until the end of the study.
Dose Route and timing: Oral Gavage (Group 2-7) Once Daily (Day 1-14). The first day of dosing was designated as Day 1. The dose formulations were stirred continuously during dosing. The doses were given using a syringe with attached gavage cannula.
Terminal plasma and tissue samples were gathered. Plasma was analyzed for TG, TC, ALT, AST, ALP, FGF15 (LCMS), TBIL, and endotoxin.
Frozen liver samples from main study were analyzed in duplicates for the estimation of liver lipids including triglycerides and cholesterol. Liver samples were kept on dry ice until transferred to sample management and stored in a freezer set to maintain […] until analysis.
The liver and small intestine collected from all animals in Groups 1-7 (Main Study) were fixed in 10% neutral buffered formalin for 24-48 hours and transferred to 70% EtOH, stored under ambient conditions and transferred to the histopathology lab at Testing Facility.
Formalin fixed liver tissues were trimmed to slides and stained with H&E and picrosirius red stains. Slides were scored by Charles River board certified veterinarian pathologists.
Formalin fixed small intestine tissues were trimmed to slides and stained with H&E and IHC antibodies (PV-1, ZO-1 and Occludin). Slides were scored by board certified veterinarian pathologists.

[4] = test system: dogs; assay: Respiratory function safety pharmacology in dogs; conditions: single doses up to 300 mg/kg
[5] = test system: male rats; assay: Irwin study (neurologic function); conditions: tested up to 180 mg/kg
[6] = test system: healthy subjects; assay: Phase 1 dose-escalation study in healthy subjects
[7] = like ursodeoxycholic acid; cited from earlier work
[8] = molecular target: T1, TGR5 (Homo sapiens, UniProt Q8TDU6); conditions: cited from earlier work
T1 sequence (Q8TDU6 1-330): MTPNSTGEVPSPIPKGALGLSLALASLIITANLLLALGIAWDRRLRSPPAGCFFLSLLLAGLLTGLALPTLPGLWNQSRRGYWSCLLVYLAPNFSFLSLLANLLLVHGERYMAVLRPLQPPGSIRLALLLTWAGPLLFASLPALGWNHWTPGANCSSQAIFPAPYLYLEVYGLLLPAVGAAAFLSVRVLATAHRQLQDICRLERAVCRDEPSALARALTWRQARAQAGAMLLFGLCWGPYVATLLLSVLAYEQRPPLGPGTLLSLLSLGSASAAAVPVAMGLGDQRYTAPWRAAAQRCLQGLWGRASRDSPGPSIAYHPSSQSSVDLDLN

SMILES	water solubility relative to obeticholic acid (OCA) [1]	hepatic residence time [2]	survival (in words) ([3]; 10 mg/kg and 30 mg/kg groups)	steatosis (graded 1-5 by a pathologist) ([3]; 10 mpk group, liver histology)	fibrosis as analyzed by Pico Sirius Red [3]	serum bile acids ([3]; both doses)	respiratory function [4]	neurologic function [5]	tolerability ([6]; 5 mg once daily for 14-days)	adverse events ([6]; doses less than 50 mg, single or repeat doses, healthy subjects)	critical micellular concentration [7]	% Alive ([3]; Dose 30 mkd, PO QD Day 1-14, includes animals for PK)	serum bile acids ([3]; high dose)	bilirubin ([3]; terminal plasma)	serum ALP ([3]; terminal plasma)	activity on TGR5 [8]
CC[C@H]1[C@@H](O)[C@@H]2[C@H]([C@@H](O)C[C@]3(C)[C@@H]([C@H](C)CCC(=O)O)CC[C@@H]23)[C@@]2(C)CC[C@@H](O)C[C@@H]12 [Compound 1, 3a,7a,11β-trihydroxy-6α-ethyl-5β-cholan-24-oic acid]	16 fold	very low	improved survival better than OCA; also recorded: greatly improved survival	close to statistical significance	minimal increase in fibrosis	significantly lowered	not affected	did not alter neurologic function	well tolerated	no AEs of clinical concern	high	–	–	–	–	–
CC[C@H]1[C@@H](O)[C@@H]2[C@H](CC[C@]3(C)[C@@H]([C@H](C)CCC(=O)O)CC[C@@H]23)[C@@]2(C)CC[C@@H](O)C[C@@H]12 [OCA, obeticholic acid, reference compound]	–	–	–	–	minimal increase in fibrosis	–	–	–	–	–	–	53%	–	–	–	–
CC[C@H]1[C@@H](O)C2C3CC[C@H]([C@H](C)CCC(=O)O)[C@@]3(C)C[C@H](O)C2[C@@]2(C)CCCC[C@@H]12 (stereo partly drawn) [Compound 2]	–	–	–	–	minimal increase in fibrosis	–	–	–	–	–	–	–	significantly lowered	decreased	increased	no activity
